In the supplement of paper PMC5908809:

Assays:
SNK-6 (IL-2 2.5 ng/mL) [1] = assay: drug sensitivity score (DSS) (DSS units); higher = more sensitive; extreme values may be limits of the assay; details: 72 h
KAI3 (IL-2 2.5 ng/mL) [2] = assay: as above; details: 72 h
[3] = test system: normal primary NK cells, pool 3 (3 donors) (IL-2 2.5 ng/mL); assay: as above; details: 72 h
NK-YS (IL-2 2.5 ng/mL) [4] = assay: as above; details: 72 h
[5] = test system: normal primary NK cells, pool 2 (3 donors) (IL-2 2.5 ng/mL); assay: as above; details: 72 h
KHYG-1 (IL-2 2.5 ng/mL) [6] = assay: as above; details: 72 h
DERL-7 (IL-2 2.5 ng/mL) [7] = assay: as above; details: 72 h
NK-92 (IL-2 2.5 ng/mL) [8] = assay: as above; details: 72 h
[9] = test system: normal primary NK cells, pool 1 (3 donors) (IL-2 2.5 ng/mL); assay: as above; details: 72 h
[10] = test system: normal primary NK cells, pool 1 (3 donors), resting (IL-2 0 ng/mL); assay: as above; details: 72 h
IMC-1 (IL-2 20 ng/mL) [11] = assay: as above; details: 72 h
YT (IL-2 2.5 ng/mL) [12] = assay: as above; details: 72 h
NKL (IL-2 2.5 ng/mL) [13] = assay: as above; details: 72 h
SNK-6 (IL-2 2.5 ng/mL) [14] = assay: percent inhibition of viability; higher = more inhibition; details: 72 h
KAI3 (IL-2 2.5 ng/mL) [15] = assay: as above; details: 72 h
[16] = test system: normal primary NK cells, pool 3 (3 donors) (IL-2 2.5 ng/mL); assay: as above; details: 72 h
NK-YS (IL-2 2.5 ng/mL) [17] = assay: as above; details: 72 h
[18] = test system: normal primary NK cells, pool 2 (3 donors) (IL-2 2.5 ng/mL); assay: as above; details: 72 h
KHYG-1 (IL-2 2.5 ng/mL) [19] = assay: as above; details: 72 h
DERL-7 (IL-2 2.5 ng/mL) [20] = assay: as above; details: 72 h
NK-92 (IL-2 2.5 ng/mL) [21] = assay: as above; details: 72 h
[22] = test system: normal primary NK cells, pool 1 (3 donors) (IL-2 2.5 ng/mL); assay: as above; details: 72 h
[23] = test system: normal primary NK cells, pool 1 (3 donors), resting (IL-2 0 ng/mL); assay: as above; details: 72 h
IMC-1 (IL-2 20 ng/mL) [24] = assay: as above; details: 72 h
YT (IL-2 2.5 ng/mL) [25] = assay: as above; details: 72 h
NKL (IL-2 2.5 ng/mL) [26] = assay: as above; details: 72 h
[27] = test system: normal NK cells expanded with K562-aAPC; assay: drug sensitivity score (DSS) (DSS units); higher = more sensitive; extreme values may be limits of the assay; details: 72 h; IL-2 2.5 ng/mL
Experimental: (§1)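 Drug sensitivity and resistance testing on K562-aAPC-expanded normal NK cells: 5 concentrations (10-fold steps over a 10,000-fold range), 72 h at 37 °C, viability by CellTiter-Glo normalised to DMSO and benzethonium chloride controls; DSS from the fitted curve.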

[28] = test system: normal NK cells expanded with K562-aAPC; assay: percent inhibition of viability; higher = more inhibition; details: 72 h, IL-2 2.5 ng/mL
Experimental: as §1

CC[C@]1(O)C[C@@H]2CN(CCc3c([nH]c4ccccc34)[C@@](C(=O)OC)(c3cc4c(cc3OC)N(C)[C@H]3[C@@](O)(C(=O)OC)[C@H](OC(C)=O)[C@]5(CC)C=CCN6CC[C@]43[C@@H]65)C2)C1 [Vinblastine] (max concentration tested 1000 nM)
Details | drug sensitivity score
DERL-7 (IL-2 2.5 ng/mL) [7] | 30.2
IMC-1 (IL-2 20 ng/mL) [11] | 29.8
KAI3 (IL-2 2.5 ng/mL) [2] | 20.6
KHYG-1 (IL-2 2.5 ng/mL) [6] | 30
NK-92 (IL-2 2.5 ng/mL) [8] | 25.6
NK-YS (IL-2 2.5 ng/mL) [4] | 24.6
NKL (IL-2 2.5 ng/mL) [13] | 29.5
SNK-6 (IL-2 2.5 ng/mL) [1] | 27.2
YT (IL-2 2.5 ng/mL) [12] | 28.4
[3] | 0.31
[5] | 4.33
[9] | 1.97
[10] | 3.19
[27] | 14.7

percent inhibition of viability [%]
Details | 0.1 nM | 1 nM | 10 nM | 100 nM | 1000 nM
DERL-7 (IL-2 2.5 ng/mL) [20] | -13.4 | -1.94 | 99.7 | 101 | 99.8
IMC-1 (IL-2 20 ng/mL) [24] | -4.96 | -7.43 | 99.5 | 101 | 100
KAI3 (IL-2 2.5 ng/mL) [15] | -16.5 | -7.66 | 45.5 | 71.1 | 82.4
KHYG-1 (IL-2 2.5 ng/mL) [19] | -4.6 | -0.24 | 96.7 | 108 | 110
NK-92 (IL-2 2.5 ng/mL) [21] | -11.5 | -1.18 | 64.9 | 100 | 107
NK-YS (IL-2 2.5 ng/mL) [17] | -5.37 | -3.92 | 70.7 | 69.4 | 90.8
NKL (IL-2 2.5 ng/mL) [26] | -3.5 | 4.6 | 90.8 | 97.5 | 102
SNK-6 (IL-2 2.5 ng/mL) [14] | -13.4 | -12.2 | 83.3 | 91.1 | 97.8
YT (IL-2 2.5 ng/mL) [25] | -6.33 | -5.56 | 88.8 | 105 | 107
[16] | -4.89 | 5.36 | 12.3 | 3.78 | 13.7
[18] | -6.34 | 7.02 | 16.6 | 16.1 | 23.6
[22] | -10.7 | 7.03 | 4.09 | 14.3 | 22.7
[23] | -21.5 | 2.75 | -2.96 | 17.9 | 28.1
[28] | -6.33 | -1.7 | 26.7 | 60.2 | 63

CCS(=O)(=O)N1CC(CC#N)(n2cc(-c3ncnc4[nH]ccc34)cn2)C1 [Baricitinib] (max concentration tested 2500 nM)
Details | drug sensitivity score
DERL-7 (IL-2 2.5 ng/mL) [7] | 19
IMC-1 (IL-2 20 ng/mL) [11] | 7.47
KAI3 (IL-2 2.5 ng/mL) [2] | 24.6
KHYG-1 (IL-2 2.5 ng/mL) [6] | 23.9
NK-92 (IL-2 2.5 ng/mL) [8] | 15.6
NK-YS (IL-2 2.5 ng/mL) [4] | 13.7
NKL (IL-2 2.5 ng/mL) [13] | 26.3
SNK-6 (IL-2 2.5 ng/mL) [1] | 12.8
YT (IL-2 2.5 ng/mL) [12] | 11.6
[3] | 10.4
[5] | 13.3
[9] | 14.7
[10] | 0
[27] | 20.2

percent inhibition of viability [%]
Details | 0.25 nM | 2.5 nM | 25 nM | 250 nM | 2500 nM
DERL-7 (IL-2 2.5 ng/mL) [20] | 2.21 | 8.22 | 35.1 | 77.5 | 101
IMC-1 (IL-2 20 ng/mL) [24] | -4.87 | -4.53 | -11.2 | 16.2 | 87.2
KAI3 (IL-2 2.5 ng/mL) [15] | 4.12 | 13.4 | 55.5 | 95.9 | 99.2
KHYG-1 (IL-2 2.5 ng/mL) [19] | -8.72 | 1.48 | 46.9 | 106 | 109
NK-92 (IL-2 2.5 ng/mL) [21] | -7.1 | -0.82 | 23.4 | 68 | 97.8
NK-YS (IL-2 2.5 ng/mL) [17] | -8.38 | -2.38 | 20.7 | 60.4 | 74.6
NKL (IL-2 2.5 ng/mL) [26] | 6.63 | 24.6 | 64.2 | 84.6 | 103
SNK-6 (IL-2 2.5 ng/mL) [14] | -16.6 | -24.9 | 5.7 | 64.8 | 68.9
YT (IL-2 2.5 ng/mL) [25] | -5.41 | -0.41 | 7.96 | 54.3 | 86.4
[16] | 2.14 | -2.13 | 9.5 | 48.8 | 70.4
[18] | -1.68 | 0.38 | 17.6 | 60.4 | 68.1
[22] | -7.54 | 2.7 | 26.4 | 61.7 | 74.2
[23] | 0.1 | 4.62 | 4.85 | 2.89 | 12.1
[28] | 0.8 | 2.05 | 31 | 89.9 | 99.7
